Results: US20130331427A1, “METHODS OF STIMULATING CELLULAR GROWTH, SYNAPTIC, REMODELING AND CONSOLIDATION OF LONG-TERM MEMORY” (Blanchette Rockefeller Neuroscience Institute, priority 2007, published 2013)
“Also recorded” adds a separate entry of the source.

Assays:
Hermissenda Crassicornis = test: Pavlovian conditioning of Hermissenda, memory retention; format: in vivo
Method: Specimens of Hermissenda Crassicornis were maintained in artificial sea water (ASW) at 15° for three days in perforated 50-ml conical centrifuge tubes before starting experiments. […] For selected experiments lactacysteine (10 μM) or anisomycin was added to the ASW.
Pavlovian conditioning of Hermissenda involves repeated pairings of a neutral stimulus, light, with an unconditioned stimulus, orbital shaking. (See, Lederhendler et al. (24) and Epstein et al. (6)). A rotation/shaking stimulus excites the statocyst hair cells and thereby elicits an unconditioned response: a brisk contraction of the muscular undersurface called a foot, accompanied by adherence or “clinging” to the surface that supports the foot. Before conditioning, light elicits a weakly positive phototaxis accompanied by lengthening of the foot. After sufficient light-rotation pairings, light no longer elicits phototaxis, but instead elicits a new response (24): the “clinging” and foot shortening previously elicited only by the unconditional stimulus (FIG. 1). Thus, the meaning of the unconditioned stimulus, rotation or orbital shaking, has been transferred to the conditioned stimulus and is manifested by a light-elicited foot contraction—a negative change of foot length. This conditioned response to light can last for weeks, is not produced by randomized light and rotation, is stimulus-specific, and shares the other defining characteristics of mammalian Pavlovian Conditioning.
Pavlovian conditioning of Hermissenda has well-defined training parameters that produce progressively longer-lasting retention of the learned conditioned response. Two training events (2 TE) of paired light and orbital shaking (see “Methods”), for example, induce a learned conditioned response (light-elicited foot contraction or shortening) that persists without drug treatment for approximately 7 minutes. Four to six training events (4-6 TE) induce a conditioned response that persists up to several hours, but disappears approximately by 1 day after training. Nine TE produces long-term associative memory lasting many days and often up to two weeks.
All animals were tested with the CS alone at 4 h, then at 24-h intervals.

Rat IGF-IR cells = test: overall protein synthesis, [35S]methionine incorporation; conditions: single 30-minute exposure to 0.28 nM
Method: [^35S]Methionine (9.1 μCi) was then added to the medium followed by analysis of radiolabel.

[1] = cited from earlier work
PKCα = molecular target: T1, PKCα (Rattus norvegicus, UniProt P05696); format: cell-based
T1 construct: from tissue; host or cells: acute hippocampal slices

CCC/C=C/C=C/C(=O)O[C@H]1/C(=C/C(=O)OC)C[C@H]2C[C@H]([C@@H](C)O)OC(=O)C[C@H](O)C[C@@H]3C[C@H](OC(C)=O)C(C)(C)[C@](O)(C[C@@H]4C/C(=C/C(=O)OC)C[C@H](/C=C/C(C)(C)[C@]1(O)O2)O4)O3 [bryostatin, bryostatin-1]
memory retention (Hermissenda Crassicornis; 2 TE plus bryostatin 0.25 ng/ml for 4 h during and after training, minutes without): lasting hours
memory retention (Hermissenda Crassicornis; 4 TEs plus bryostatin 0.25 ng/ml for 4 h): > 24 h
retention (Hermissenda Crassicornis; 20 h pre-exposure 0.25 ng/ml, 4-paired TE, at 48 h): persisted
time by which retention was gone (Hermissenda Crassicornis; 20 hr exposure 0.25 ng/ml, 2-paired TE): ≤ 48 h
concentration that inhibited acquisition and behavioral retention (Hermissenda Crassicornis; all training conditions tested): greater than 1.0 ng/ml
memory after 2, 4, or 6 training trials (Hermissenda Crassicornis; low doses (0.1-0.25 ng/ml)): markedly enhanced memory
conditioned response (Hermissenda Crassicornis; randomized presentations of light and rotation): no conditioned response
time after which behavioral retention was lost (Hermissenda Crassicornis; single 4 h exposure 0.25 ng/ml alone, 2-paired TEs 24 hrs later): ≤ 24 h
concentrations that augment acquisition and memory retention (Hermissenda Crassicornis; sub-optimal (4 TE) training): < 0.50 ng/mL
long-term retention (LTR) post-training (Hermissenda Crassicornis; three successive days of 4-h exposure 0.25 ng/ml, 2-TEs one day later): ≥ 96 h
long-term retention (Hermissenda Crassicornis; two successive days of 4-h exposure 0.25 ng/ml, 2-paired TEs): at least 6 days
increase of overall protein synthesis (Rat IGF-IR cells; by 79 hours): 60%
increase of overall protein synthesis (Rat IGF-IR cells; within 24 h): 20%
tolerability ([1]; 20 μg/m^2 once per week for 3 weeks): well tolerated
maximum-tolerated dose ([1]; 1 hour i.v. infusion once every 2 weeks for 6 weeks): 50 μg/m^2
maximum tolerated dose ([1]; once per week for 8 weeks): 25 μg/m^2
myalgia reported, share of all treated patients ([1]; phase II clinical trials): 10 to 87%
activation of PKCα (PKCα): stimulates translocation to the plasma membrane; also recorded: selectively activated
